Measurements from PubChem BioAssay AID977624 (Broad Institute, 2014).
Results filed as inconclusive are left out. Calls of active or inactive are those of the source.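 How the source made its calls: active means compound lowering the normal-ribosome reporter at least twice as much as the humanized-ribosome reporter, growth loss under a set limit; inconclusive means no clear call, values can overlap the other calls; inactive means the rest.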

The molecules below were run on E. coli wild-type GFP strain growth, fluorescence, 24 h (assay: growth inhibition of wild-type GFP E. coli, dose response, h34 mutant RFP, cherry-pick (AID 977624);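 further: wild-type GFP strain co-cultured with humanized h34 ribosome RFP strain in same well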).
`NS(=O)(=O)c1cccc(NC(=O)CSc2nnc(-c3ccccc3F)n2C2CC2)c1` was tested, and the AC50 was > 100 µM (inactive). With `CCCN(CC1CC1)C(=O)CSc1ncnc2sccc12` the AC50 was > 100 µM (inactive). For `Cc1ccccc1OCC(O)Cn1c(NCc2ccco2)nc2c1c(=O)n(C)c(=O)n2C` (stereo not drawn), the AC50 was > 100 µM (inactive). In the case of `Cc1cc(C(=O)COC(=O)c2ccc(Br)o2)c(C)n1C`, the AC50 is reported as > 100 µM (inactive). For `O=C(O)c1ccc(-c2noc(-c3cccc(Cl)c3)n2)cc1`, the AC50 was > 100 µM (inactive). With `CCCCc1ccc(S(=O)(=O)Nc2ccc(C)c(NS(C)(=O)=O)c2)cc1` the AC50 was > 100 µM (inactive). For `CN(C)C(=O)C1C2NC(=S)N(c3cccc(Cl)c3)C1(C)Oc1ccc(Cl)cc12` (stereo not drawn), the AC50 was > 100 µM (inactive). `CC1(C(=O)NS(=O)(=O)c2ccc3c(c2)CCO3)CCN1C(=O)c1ccccc1CCc1ccccc1` (stereo not drawn) was tested, and the AC50 was > 100 µM (inactive). For `COc1ccc2[nH]cc(CCNC(=O)C3CC(=O)N(c4ccc(Cl)cc4)C3)c2c1` (stereo not drawn), the AC50 was > 100 µM (inactive). With `COc1ccc(CNC(=O)Cc2cn(C)c3ccccc23)c(OC)c1` the AC50 was > 100 µM (inactive). `COc1ccccc1Cn1c(=S)[nH]c2ccc(F)cc2c1=O` was tested, and the AC50 was > 100 µM (inactive). For `O=C(CCCOc1ccc(Cl)cc1Cl)Nc1ccccc1C(=O)O`, the AC50 was > 100 µM (inactive). In the case of `Cc1ccc2nc(SCC(=O)Nc3c(F)cccc3F)[nH]c2c1`, the AC50 is reported as > 100 µM (inactive). In the case of `Cc1cccc(-c2ccc([C@H]3[C@@H](CO)N4CCCCN(S(=O)(=O)c5ccccc5C)C[C@H]34)cc2)c1`, the AC50 is reported as > 52 µM (inactive). `CC1=Nc2cc(C(=O)NCC3CCCO3)ccc2Sc2ccc(Br)cc21` (stereo not drawn) was tested, and the AC50 was > 100 µM (inactive). With `CC1(C(=O)NS(=O)(=O)c2cccc(C#N)c2)CCN1C(=O)C1(c2ccc(Cl)cc2)CCC1` (stereo not drawn) the AC50 was > 100 µM (inactive). With `FC(F)(F)c1ccc(Cl)c(-n2c(Cc3cccs3)n[nH]c2=S)c1` the AC50 was > 100 µM (inactive). `O=C(Nc1ccc(C(=O)Nc2ccccc2Cl)cc1)c1cccnc1` was tested, and the AC50 was > 100 µM (inactive). For `CCc1ccc(NC(=O)CCc2c(C)nn(-c3ccc(N4CCCCC4)nn3)c2C)cc1`, the AC50 was > 100 µM (inactive). For `CC(=O)c1c(C)[nH]c(C(=O)Nc2nc(C)cs2)c1C`, the AC50 was > 100 µM (inactive). For `O=C(O)CCN(Cc1ccccc1)S(=O)(=O)c1ccc(Cl)cc1F`, the AC50 was > 100 µM (inactive). In the case of `CC1(C(=O)NS(=O)(=O)c2cccc(Cl)c2)CCN1C(=O)C1(c2ccc(Cl)cc2)CCC1` (stereo not drawn), the AC50 is reported as > 100 µM (inactive). In the case of `O=C(Nc1cccc(O)c1)c1cc(-c2ccccc2Cl)on1`, the AC50 is reported as > 100 µM (inactive). `CN1CCN(C(=O)C[C@H]2CC[C@@H]3[C@H](COC[C@@H](O)CN3C(=O)Nc3ccc(Cl)cc3)O2)CC1` was tested, and the AC50 was > 100 µM (inactive). With `CCN(C(=O)COC(=O)c1cn(-c2ccccc2)nc1-c1ccccc1)C1CCS(=O)(=O)C1` (stereo not drawn) the AC50 was > 100 µM (inactive). With `NC(=O)c1sc2nnc(-c3ccccc3)c(-c3ccccc3)c2c1N` the AC50 was > 100 µM (inactive). For `COC(=O)c1cccc(CN2C(=O)SC(Nc3ccc(C)cc3)C2=O)c1` (stereo not drawn), the AC50 was > 100 µM (inactive). In the case of `CC(C)(CC(=O)O)CC(=O)NCc1c(Cl)cccc1Sc1ccc(Cl)cc1`, the AC50 is reported as > 100 µM (inactive). With `COC(=O)COc1ccc(S(=O)(=O)N2CCc3ccccc3C2)cc1C` the AC50 was > 100 µM (inactive). With `COc1ccc(C(CC(=O)c2ccc(O)cc2)S(=O)(=O)c2ccc(C)cc2)cc1` (stereo not drawn) the AC50 was > 100 µM (inactive). `Cc1ccc2oc(C(=O)N(CCO)Cc3ccccc3)c(C)c2c1` was tested, and the AC50 was > 100 µM (inactive). `CCOc1ccccc1/C=C/c1cc(C(=O)O)c2ccccc2n1` was tested, and the AC50 was > 100 µM (inactive). With `Cc1n[nH]c(C)c1Sc1ccccc1[N+](=O)[O-]` the AC50 was > 100 µM (inactive). With `Cc1ccc(C(=O)OCC(=O)c2c[nH]c3ccccc23)cc1NC(=O)c1ccco1` the AC50 was > 100 µM (inactive). With `Fc1cccc(Cl)c1CSc1ccc(-c2ccco2)nn1` the AC50 was > 100 µM (inactive). For `O=C(Nc1cccc(-c2cn3ccccc3n2)c1)c1ccccc1`, the AC50 was > 100 µM (inactive). `COc1cc(NC(=O)CSCc2ccc(Cl)cc2Cl)c(C(=O)O)cc1OC` was tested, and the AC50 was > 100 µM (inactive). For `COc1cccc2c1Oc1cc([N+](=O)[O-])cc(N(C)C(C)=O)c1C=C2`, the AC50 was > 100 µM (inactive). With `CC(=O)Oc1ccc(N(C(C)=O)S(=O)(=O)c2ccc(C)cc2)c2ccccc12` the AC50 was > 100 µM (inactive). With `Cc1ccc(C2NC(=O)c3[nH]nc(-c4ccccc4)c32)cc1` (stereo not drawn) the AC50 was > 100 µM (inactive). For `COc1cc(NC(=O)c2ccc([N+](=O)[O-])o2)ccc1NC(=O)c1ccco1`, the AC50 was > 100 µM (inactive). In the case of `COc1ccc(-c2ccc3ccccc3n2)cc1OC`, the AC50 is reported as > 100 µM (inactive). In the case of `CC(=O)Nc1ccc(Nc2nc(C)c([N+](=O)[O-])c(N(C)c3ccccc3)n2)cc1`, the AC50 is reported as > 100 µM (inactive). In the case of `COc1ccc(NC(=O)CN(c2ccccc2)S(=O)(=O)c2ccccc2)c(OC)c1`, the AC50 is reported as > 100 µM (inactive). For `NC(=O)c1nsc(C(=O)N(c2ccccc2F)C(C(=O)NCc2ccc(F)cc2)c2ccc(O)cc2)c1N` (stereo not drawn), the AC50 was > 100 µM (inactive). With `COc1ccc(CCNc2nc(-c3ccncc3)cs2)cc1OC` the AC50 was > 100 µM (inactive). With `O=C(Cn1c2[n+](c3ccc(C(F)(F)F)cc31)CCCCC2)c1ccc2c(c1)OCCO2` the AC50 was > 100 µM (inactive). In the case of `O=C(CCCn1c(=S)[nH]c2ccsc2c1=O)Nc1ccc2c(c1)OCCO2`, the AC50 is reported as > 100 µM (inactive). In the case of `Cc1oc(-c2ccc(-c3ccccc3)cc2)nc1CN(C)C1CCOC1` (stereo not drawn), the AC50 is reported as > 100 µM (inactive). With `O=S(=O)(c1ccccc1)N1C[C@H]2[C@@H](c3ccccc31)[C@@H](CO)N2Cc1ccccc1` the AC50 was > 100 µM (inactive). With `CCC(=O)c1ccc(OCC(=O)Nc2nc(C)cs2)cc1` the AC50 was > 100 µM (inactive). `O=C(CCc1ccccc1)Nc1sc2c(c1C(=O)O)CCCC2` was tested, and the AC50 was > 100 µM (inactive). With `Cc1ccsc1C(=O)OCC(=O)N1CCc2ccccc2C1` the AC50 was > 100 µM (inactive). With `COc1cc2c(cc1OC)C1(C)N(CC2)C(C(C)=O)=NN1c1ccc(Cl)cc1` (stereo not drawn) the AC50 was > 100 µM (inactive). `CCCCC(=O)N1CCN(c2nc3ccc(Br)cc3s2)CC1` was tested, and the AC50 was > 100 µM (inactive). For `COc1ccc(C(=O)Nc2ccc3oc(Cc4ccc(Cl)cc4)nc3c2)cc1OC`, the AC50 was > 100 µM (inactive). `O=S(=O)(NC1c2cccc3cccc(c23)C1Sc1ncccn1)c1ccccc1` (stereo not drawn) was tested, and the AC50 was > 100 µM (inactive). `CCOc1ccccc1N1CCN(Cc2cn[nH]c2-c2ccc(F)cc2)CC1` was tested, and the AC50 was > 100 µM (inactive). In the case of `Clc1ccc(-c2nc3ccc(Br)cn3c2Cc2ccsc2)cc1`, the AC50 is reported as > 100 µM (inactive). In the case of `COc1ccc(-c2noc(=O)n2Cc2ccccc2Cl)cc1`, the AC50 is reported as > 100 µM (inactive). `CS(=O)(=O)c1cccc(C(=O)Nc2cccc(-c3nc4ccccc4[nH]3)c2)c1` was tested, and the AC50 was > 100 µM (inactive). `O=C(COC(=O)c1n[nH]c2ccccc12)Nc1cccc(S(=O)(=O)N2CCOCC2)c1` was tested, and the AC50 was > 100 µM (inactive). For `O=[N+]([O-])c1cccnc1N1CCN(c2ccc(F)cc2)CC1`, the AC50 was > 100 µM (inactive). `COC(=O)COc1ccc(Cl)cc1C1Nc2ccccc2C(=O)N1c1ccc(OC)cc1` (stereo not drawn) was tested, and the AC50 was > 100 µM (inactive). With `CN(CCOc1ccccc1)S(=O)(=O)c1ccccc1C#N` the AC50 was > 100 µM (inactive). With `N#Cc1nc(Cc2ccccc2)oc1N1CCCC1` the AC50 was > 100 µM (inactive). For `O=C(O)c1ccc2c(c1)N(Cc1ccc(F)cc1)C(=O)c1ccccc1S2`, the AC50 was > 100 µM (inactive). `COc1ccc(NC(=O)CN(c2ccccc2OC)S(=O)(=O)c2cccs2)cc1Cl` was tested, and the AC50 was > 100 µM (inactive). In the case of `Cc1cnc(NC(=O)Cc2c[nH]c3ccccc23)s1`, the AC50 is reported as > 100 µM (inactive). `COc1ccc(-c2nnn(CC(=O)N3CCN(c4ccccc4OC)CC3)n2)cc1OC` was tested, and the AC50 was > 100 µM (inactive). With `COc1ccc(Nc2nc(N)c([N+](=O)[O-])c(N3CCCC3)n2)cc1` the AC50 was > 100 µM (inactive). For `COc1cc(SC)ccc1C(=O)N1CCN(c2ccccc2F)CC1`, the AC50 was > 100 µM (inactive). `COc1ccc(C(=O)NCCc2ccccn2)cc1S(=O)(=O)Nc1ccc(Br)cc1` was tested, and the AC50 was > 100 µM (inactive). `CC1(C)CC(=O)c2cnc(N3CCc4ccccc43)nc2C1` was tested, and the AC50 was > 100 µM (inactive). In the case of `CCN(c1ccccc1)S(=O)(=O)c1ccc(OC)c(OC)c1`, the AC50 is reported as > 100 µM (inactive). In the case of `O=C(c1ccc(-n2cccn2)cc1)N1CCc2ccccc2C1`, the AC50 is reported as > 100 µM (inactive). For `COc1ccccc1-c1ccc(SCc2cccc(F)c2)nn1`, the AC50 was > 100 µM (inactive). With `CCOc1ccc(S(=O)(=O)N(C)c2ccc(OCC(=O)Nc3ccc4[nH]c(=O)[nH]c4c3)cc2)cc1` the AC50 was > 100 µM (inactive). With `COc1ccc(Br)c(-c2nc(CS(=O)(=O)c3ccc(F)cc3)no2)c1` the AC50 was > 100 µM (inactive). `O=S(=O)(c1ccccc1)N1C[C@@H]2[C@H](c3ccccc31)[C@H](CO)N2Cc1ccccc1` was tested, and the AC50 was > 100 µM (inactive). With `Cc1ccc(-n2nc(C)c3c(C)c(CCC(=O)O)c(C)nc32)cc1C` the AC50 was > 100 µM (inactive). With `CCOC(=O)c1c(CS(=O)(=O)c2ccccc2)n(C)c2cc(Br)c(O)cc12` the AC50 was > 100 µM (inactive). With `CCc1nnc(NS(=O)(=O)c2ccc(NC(=O)c3cccc4ccccc34)cc2)s1` the AC50 was > 100 µM (inactive). For `NC(=O)c1ccsc1NC(=O)COC(=O)CCOc1ccccc1`, the AC50 was > 100 µM (inactive). `CCOc1ccc(C(C)=O)cc1CN1C(=O)NC2(CCCCCCC2)C1=O` was tested, and the AC50 was > 100 µM (inactive). `Cc1cccc(C)c1NC(=O)C1(C)CSCC(=O)N1CCOc1ccccc1` (stereo not drawn) was tested, and the AC50 was > 100 µM (inactive). With `CC(OC(=O)CCc1nc2ccccc2c(=O)[nH]1)C(=O)c1ccc(Br)cc1` (stereo not drawn) the AC50 was > 100 µM (inactive). With `CN(c1ccccc1)S(=O)(=O)c1cccc(C(=O)OCC(=O)NCc2ccco2)c1` the AC50 was > 100 µM (inactive). For `CC(Nc1ncnc2ccccc12)c1ccccc1` (stereo not drawn), the AC50 was > 100 µM (inactive). In the case of `C[C@H](CO)N1C[C@H](C)[C@H](CN(C)C(=O)CCCN(C)C)OCCCC[C@H](C)Oc2ccc(NC(=O)Nc3cccc4ccccc34)cc2C1=O`, the AC50 is reported as > 100 µM (inactive). For `O=C(NCc1nc2ccccc2[nH]1)c1ccc(S(=O)(=O)N2CCCC2)cc1`, the AC50 was > 100 µM (inactive). With `COC(=O)c1c(-c2ccc(OC)cc2)sc2cc(OC)c(OC)cc12` the AC50 was > 100 µM (inactive). For `Cc1ccc(NC(=O)C2CCN(S(=O)(=O)c3ccc4c(c3)NC(=O)CO4)CC2)cc1`, the AC50 was > 100 µM (inactive).
